# System: RS4; 11 with G101V mutation
# Assay: In vitro anti-proliferation assay (ATPlite luminescence) in BCL-2-dependent ALL cell line RS4;11 with G101V mutation
# Format: cell-based
# Conditions: cellular anti-proliferative IC50, about 72 hours, medium with 10% FBS, ATPlite; read-out: RS411-G101V IC50
# Method in brief: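 IC50 came from luminescent ATP quantification (ATPlite) following cell lysis. Compound dose ranges were applied for roughly 72 h to about 1×10^4 G101V-mutant RS4;11 cells per well, in 10% FBS medium.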
row,Compound,IC50 [nM]
1,"COc1c(CN2CCN(C3CC4(CCN(c5ccc(C(=O)NS(=O)(=O)c6ccc(NCC7CCC(C)(O)CC7)c([N+](=O)[O-])c6)c(N6c7cc8cc[nH]c8nc7O[C@H]7COCC[C@@H]76)c5)CC4)C3)[C@@H](c3ccccc3OC(C)C)C2)ccnc1N1CCOCC1 (stereo partly drawn) [Example 151, N-((4-((((1r,4r)-4-hydroxy-4-methylcyclohexyl)methyl)amino)-3-nitrophenyl)sulfonyl)-4-(2-((S)-2-(2-isopropoxyphenyl)-4-((3-methoxy-2-morpholinopyridin-4-yl)methyl)piperazin-1-yl)-7-azaspiro[3.5]nonan-7-yl)-2-((5aS,9aR)-6,7,9,9a-tetrahydro-1H-pyrano[3,4-b]pyrrolo[3′,2′:5,6]pyrido[3,2-e][1,4]oxazin-5(5aH)-yl)benzamide]",19.8
2,"CC(C)Oc1ccccc1[C@H]1CN(Cc2ccc3c(c2)OCCO3)CCN1C1CC2(CCN(c3ccc(C(=O)NS(=O)(=O)c4ccc(NCC5CCC(C)(O)CC5)c([N+](=O)[O-])c4)c(N4c5cc6cc[nH]c6nc5O[C@H]5COCC[C@@H]54)c3)CC2)C1 (stereo partly drawn) [Example 152, 4-(2-((S)-4-((2,3-dihydrobenzo[b][1,4]dioxin-6-yl)methyl)-2-(2-isopropoxyphenyl)piperazin-1-yl)-7-azaspiro[3.5]nonan-7-yl)-N-((4-((((1r,4r)-4-hydroxy-4-methylcyclohexyl)methyl)amino)-3-nitrophenyl)sulfonyl)-2-((5aS,9aR)-6,7,9,9a-tetrahydro-1H-pyrano[3,4-b]pyrrolo[3′,2′:5,6]pyrido[3,2-e][1,4]oxazin-5(5aH)-yl)benzamide]",28.3
3,"CC(C)Oc1ccccc1[C@H]1CN(Cc2ccc(N3CCOC[C@H]3C)c(F)c2)CCN1C1CC2(CCN(c3ccc(C(=O)NS(=O)(=O)c4ccc(NCC5CCC(C)(O)CC5)c([N+](=O)[O-])c4)c(N4c5cc6cc[nH]c6nc5O[C@H]5COCC[C@@H]54)c3)CC2)C1 (stereo partly drawn) [Example 153, 2-[(3R,8S)-2,5-dioxa-9,15,17-triazatetracyclo[8.7.0.0^{3,8}.0^{12,16}]heptadeca-1(10),11,13,16-tetraen-9-yl]-4-{2-[(2S)-4-({3-fluoro-4-[(3R)-3-methylmorpholin-4-yl]phenyl}methyl)-2-(2-isopropoxyphenyl)piperazin-1-yl]-7-azaspiro[3.5]nonan-7-yl}-N-[3-nitro-4-({[(1r,4r)-4-hydroxy-4-methylcyclohexyl]methyl}amino)benzenesulfonyl]benzamide]",47.1
4,"Cc1ccccc1[C@@H]1CN(Cc2ccc(F)c(F)c2)CCN1C1CC2(CCN(c3ccc(C(=O)NS(=O)(=O)c4ccc(NCC5CCC(C)(O)CC5)c([N+](=O)[O-])c4)c(N4c5cc6cc[nH]c6nc5O[C@H]5COCC[C@@H]54)c3)CC2)C1 (stereo partly drawn) [Example 154, 4-{2-[(2R)-4-[(3,4-difluorophenyl)methyl]-2-(2-methylphenyl)piperazin-1-yl]-7-azaspiro[3.5]nonan-7-yl}-2-[(3R,8S)-2,5-dioxa-9,15,17-triazatetracyclo[8.7.0.0^{3,8}.0^{12,16}]heptadeca-1(10),11,13,16-tetraen-9-yl]-N-[3-nitro-4-({[(1r,4r)-4-hydroxy-4-methylcyclohexyl]methyl}amino)benzenesulfonyl]benzamide]",27.6
5,"Cc1ccccc1[C@@H]1CN(Cc2ccc(N3CCOC[C@H]3C)c(F)c2)CCN1C1CC2(CCN(c3ccc(C(=O)NS(=O)(=O)c4ccc(NC[C@H]5CC[C@](C)(O)CC5)c([N+](=O)[O-])c4)c(N4c5cc6cc[nH]c6nc5O[C@H]5COCC[C@@H]54)c3)CC2)C1 [Example 155, 2-[(3R,8S)-2,5-dioxa-9,15,17-triazatetracyclo[8.7.0.0^{3,8}.0^{12,16}]heptadeca-1(10),11,13,16-tetraen-9-yl]-4-{2-[(2R)-4-({3-fluoro-4-[(3R)-3-methylmorpholin-4-yl]phenyl}methyl)-2-(2-methylphenyl)piperazin-1-yl]-7-azaspiro[3.5]nonan-7-yl}-N-[3-nitro-4-({[(1r,4r)-4-hydroxy-4-methylcyclohexyl]methyl}amino)benzenesulfonyl]benzamide]",91.8
6,"Cc1ccccc1[C@@H]1CN(CC2CCOCC2)CCN1C1CC2(CCN(c3ccc(C(=O)NS(=O)(=O)c4ccc(NC[C@H]5CC[C@](C)(O)CC5)c([N+](=O)[O-])c4)c(N4c5cc6cc[nH]c6nc5O[C@H]5COCC[C@@H]54)c3)CC2)C1 [Example 156, 2-[(3R,8S)-2,5-dioxa-9,15,17-triazatetracyclo[8.7.0.0^{3,8}.0^{12,16}]heptadeca-1(10),11,13,16-tetraen-9-yl]-4-{2-[(2R)-2-(2-methylphenyl)-4-(oxan-4-ylmethyl)piperazin-1-yl]-7-azaspiro[3.5]nonan-7-yl}-N-[3-nitro-4-({[(1r,4r)-4-hydroxy-4-methylcyclohexyl]methyl}amino)benzenesulfonyl]benzamide]",12.2
7,"COc1cc(CN2CCN(C3CC4(CCN(c5ccc(C(=O)NS(=O)(=O)c6ccc(NC[C@H]7CC[C@](C)(O)CC7)c([N+](=O)[O-])c6)c(N6c7cc8cc[nH]c8nc7O[C@H]7COCC[C@@H]76)c5)CC4)C3)[C@@H](c3ccccc3OC(C)C)C2)ccc1C1CC1 [Example 157, 4-(2-((S)-4-(4-cyclopropyl-3-methoxybenzyl)-2-(2-isopropoxyphenyl)piperazin-1-yl)-7-azaspiro[3.5]nonan-7-yl)-N-((4-((((1r,4r)-4-hydroxy-4-methylcyclohexyl)methyl)amino)-3-nitrophenyl)sulfonyl)-2-((5aS,9aR)-6,7,9,9a-tetrahydro-1H-pyrano[3,4-b]pyrrolo[3′,2′:5,6]pyrido[3,2-e][1,4]oxazin-5(5aH)-yl)benzamide]",31.8
8,"COc1ncc(CN2CCN(C3CC4(CCN(c5ccc(C(=O)NS(=O)(=O)c6ccc(NCC7CCC(C)(O)CC7)c([N+](=O)[O-])c6)c(N6c7cc8cc[nH]c8nc7O[C@H]7COCC[C@@H]76)c5)CC4)C3)[C@@H](c3ccccc3OC(C)C)C2)cc1C (stereo partly drawn) [Example 158, N-((4-((((1r,4r)-4-hydroxy-4-methylcyclohexyl)methyl)amino)-3-nitrophenyl)sulfonyl)-4-(2-((S)-2-(2-isopropoxyphenyl)-4-((6-methoxy-5-methylpyridin-3-yl)methyl)piperazin-1-yl)-7-azaspiro[3.5]nonan-7-yl)-2-((5aS,9aR)-6,7,9,9a-tetrahydro-1H-pyrano[3,4-b]pyrrolo[3′,2′:5,6]pyrido[3,2-e][1,4]oxazin-5(5aH)-yl)benzamide]",21.2
9,"CC(C)Oc1ccccc1[C@H]1CN(CC2CCOCC2)CCN1C1CC2(CCN(c3ccc(C(=O)NS(=O)(=O)c4ccc(NCC5CCC(C)(O)CC5)c([N+](=O)[O-])c4)c(N4c5cc6cc[nH]c6nc5O[C@H]5COCC[C@@H]54)c3)CC2)C1 (stereo partly drawn) [Example 159, 2-[(3R,8S)-2,5-dioxa-9,15,17-triazatetracyclo[8.7.0.0^{3,8}.0^{12,16}]heptadeca-1(10),11,13,16-tetraen-9-yl]-4-{2-[(2S)-2-(2-isopropoxyphenyl)-4-(oxan-4-ylmethyl)piperazin-1-yl]-7-azaspiro[3.5]nonan-7-yl}-N-[3-nitro-4-({[(1r,4r)-4-hydroxy-4-methylcyclohexyl]methyl}amino)benzenesulfonyl]benzamide]",7.5
10,"CC(C)Oc1ccccc1[C@H]1CN(C2CCC(N3CCOC[C@H]3C)CC2)CCN1C1CC2(CCN(c3ccc(C(=O)NS(=O)(=O)c4ccc(NCC5CCC(C)(O)CC5)c([N+](=O)[O-])c4)c(N4c5cc6cc[nH]c6nc5O[C@H]5COCC[C@@H]54)c3)CC2)C1 (stereo partly drawn) [Example 160, N-((4-((((1r,4r)-4-hydroxy-4-methylcyclohexyl)methyl)amino)-3-nitrophenyl)sulfonyl)-4-(2-((S)-2-(2-isopropoxyphenyl)-4-((1S,4R)-4-((R)-3-methylmorpholino)cyclohexyl)piperazin-1-yl)-7-azaspiro[3.5]nonan-7-yl)-2-((5aS,9aR)-6,7,9,9a-tetrahydro-1H-pyrano[3,4-b]pyrrolo[3′,2′:5,6]pyrido[3,2-e][1,4]oxazin-5(5aH)-yl)benzamide]",22.8
11,"CC(C)Oc1ccccc1[C@H]1CN(C2CCC(N3CCOC[C@H]3C)CC2)CCN1C1CC2(CCN(c3ccc(C(=O)NS(=O)(=O)c4ccc(NCC5CCC(C)(O)CC5)c([N+](=O)[O-])c4)c(N4c5cc6cc[nH]c6nc5O[C@H]5COCC[C@@H]54)c3)CC2)C1 (stereo partly drawn) [Example 161, N-((4-((((1r,4r)-4-hydroxy-4-methylcyclohexyl)methyl)amino)-3-nitrophenyl)sulfonyl)-4-(2-((S)-2-(2-isopropoxyphenyl)-4-((1R,4S)-4-((R)-3-methylmorpholino)cyclohexyl)piperazin-1-yl)-7-azaspiro[3.5]nonan-7-yl)-2-((5aS,9aR)-6,7,9,9a-tetrahydro-1H-pyrano[3,4-b]pyrrolo[3′,2′:5,6]pyrido[3,2-e][1,4]oxazin-5(5aH)-yl)benzamide]",18.1
12,"CC(C)Oc1ccccc1[C@H]1CN(C2CCN(C3CCOCC3)CC2)CCN1C1CC2(CCN(c3ccc(C(=O)NS(=O)(=O)c4ccc(NC[C@H]5CC[C@](C)(O)CC5)c([N+](=O)[O-])c4)c(N4c5cc6cc[nH]c6nc5O[C@H]5COCC[C@@H]54)c3)CC2)C1 [Example 162, N-((4-((((1r,4r)-4-hydroxy-4-methylcyclohexyl)methyl)amino)-3-nitrophenyl)sulfonyl)-4-(2-((S)-2-(2-isopropoxyphenyl)-4-(1-(tetrahydro-2H-pyran-4-yl)piperidin-4-yl)piperazin-1-yl)-7-azaspiro[3.5]nonan-7-yl)-2-((5aS,9aR)-6,7,9,9a-tetrahydro-1H-pyrano[3,4-b]pyrrolo[3′,2′:5,6]pyrido[3,2-e][1,4]oxazin-5(5aH)-yl)benzamide]",49.9
